Results published in patent publication US20260008770A1, “CBL-B INHIBITORS AND METHODS OF USES THEREOF” (Insilico Medicine IP Limited, priority 2022, published 2026).
pIC50: −log10 of the molar value. Where two headings read alike, the source gives them in different places.

Molecular target: Cbl-b protein (CBL-B, GST-Tag) (Homo sapiens (Human), UniProt Q13191)
Assay: HTRF based binding assay, affinity to Cbl-b protein
[1] = HTRF binding, CBL-B (GST-Tag), fluorescence labeled Cbl-b binding probe

Sequence of Cbl-b protein (CBL-B, GST-Tag) (Q13191 whole entry): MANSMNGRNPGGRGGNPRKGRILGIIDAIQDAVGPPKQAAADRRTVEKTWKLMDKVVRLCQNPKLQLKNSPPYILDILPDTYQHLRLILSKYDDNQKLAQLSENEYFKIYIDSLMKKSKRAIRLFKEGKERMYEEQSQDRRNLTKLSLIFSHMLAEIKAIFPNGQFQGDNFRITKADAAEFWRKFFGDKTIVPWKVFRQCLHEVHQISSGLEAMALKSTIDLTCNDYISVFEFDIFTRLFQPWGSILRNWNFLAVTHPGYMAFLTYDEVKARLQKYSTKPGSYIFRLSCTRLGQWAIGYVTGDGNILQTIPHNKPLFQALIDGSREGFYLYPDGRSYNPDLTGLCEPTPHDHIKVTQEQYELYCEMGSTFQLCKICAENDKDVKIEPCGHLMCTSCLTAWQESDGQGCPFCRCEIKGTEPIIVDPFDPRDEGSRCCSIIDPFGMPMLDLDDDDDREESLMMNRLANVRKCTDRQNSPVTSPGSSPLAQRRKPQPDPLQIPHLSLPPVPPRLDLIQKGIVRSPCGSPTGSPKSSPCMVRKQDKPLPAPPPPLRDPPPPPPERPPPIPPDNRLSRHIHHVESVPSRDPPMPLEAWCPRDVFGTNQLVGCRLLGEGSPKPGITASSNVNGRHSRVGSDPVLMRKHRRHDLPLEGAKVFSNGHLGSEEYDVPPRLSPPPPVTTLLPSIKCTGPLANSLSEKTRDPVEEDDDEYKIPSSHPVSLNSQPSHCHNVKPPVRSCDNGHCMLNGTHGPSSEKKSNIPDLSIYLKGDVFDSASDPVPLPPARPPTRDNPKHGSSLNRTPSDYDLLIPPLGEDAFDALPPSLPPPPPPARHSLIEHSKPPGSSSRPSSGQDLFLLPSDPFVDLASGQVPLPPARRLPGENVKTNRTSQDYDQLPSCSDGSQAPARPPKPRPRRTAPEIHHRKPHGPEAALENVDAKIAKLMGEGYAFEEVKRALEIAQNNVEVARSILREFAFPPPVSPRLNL

SMILES	pIC50 [1]	pIC50
CC1CC(c2cccc(NC(=O)c3cc(CN4CCC[C@H](C)C4)cc4c3OCCC4(F)F)c2)(c2nncn2C)C1 (some centres unmarked) [Example 24]	> 7.70	
CC1=CCCN(Cc2cc(C(F)(F)F)c3cnn(-c4cccc(C5(c6nncn6C)CC(C)C5)c4)c(=O)c3c2)C1 (centres unmarked) [Example 21]		6.30 to 7.30
Cn1cnnc1C(F)C1(c2cccc(-n3cc4c(C(F)(F)F)cc(CN5CCC[C@H](C6CC6)C5)cc4n3)c2)COC1 (some centres unmarked) [Example 50]	> 7.70	
CC1CN(Cc2cc(C(F)(F)F)c3ncn(-c4cc([C@]5(c6nncn6C)C[C@@H](C)C5)ccn4)c(=O)c3c2)CCC1(F)F (some centres unmarked) [Example 34]		7.30 to 7.70
Cn1cnnc1[C@]1(c2ccnc(-n3ncc4c(C(F)(F)F)cc(CN5CCOC6(CCC6)C5)cc4c3=O)c2)C[C@H](C)C1 [Example 39]		6.00 to 6.30
Cn1cnnc1[C@]1(c2cccc(-n3cc4c(C(F)(F)F)cc(CN5CCC[C@H](OC(F)F)C5)cc4n3)c2)C[C@H](C)C1 [Example 74]		6.30 to 7.30
CC1CC(c2cccc(-c3nc4cc(CN5CCC[C@H](C)C5)cc(C(F)(F)F)c4n3C)c2)(c2nncn2C)C1 (some centres unmarked) [Example 8]		6.30 to 7.30
CC1CC(c2cccc(-n3cc4c(C(F)(F)F)cc(CN5CCC[C@H](C)C5)cc4n3)c2)(c2nncn2C)C1 (some centres unmarked) [Example 7]	> 7.70	
C[C@H]1CCCN(Cc2cc(C(F)(F)F)c3cn(-c4cccc(C5(Cc6nncn6C)COC5)c4)nc3c2)C1 [Example 88]	> 7.70	
CC1CC(c2cc(CO)cc(-n3cc4c(C(F)(F)F)cc(CN5CCC[C@H](C)C5)cc4n3)c2)(c2nncn2C)C1 (some centres unmarked) [Example 60]		6.30 to 7.30
C[C@H]1CCCN(Cc2cc(C(F)(F)F)c3ncn(-c4cc(C5(Cc6nncn6C)COC5)ccn4)c(=O)c3c2)C1 [Example 35]		6.30 to 7.30
C[C@@H]1CN(Cc2ccc3ncn(-c4cc([C@]5(c6nncn6C)C[C@@H](C)C5)cc(OCF)n4)c(=O)c3c2)CCC1F (some centres unmarked) [Example 123]	> 7.70	
C[C@H]1CCCN(Cc2cc(C(F)(F)F)c3ncn(-c4cc([C@]5(c6nncn6C(F)F)C[C@@H](C)C5)ccn4)c(=O)c3c2)C1 [Example 48]	> 7.70	
C=C(F)c1cc([C@]2(c3nncn3C)C[C@@H](C)C2)cc(-n2cnc3c(C(F)(F)F)cc(CN4CCC[C@H](C)C4)cc3c2=O)n1 [Example 107]	> 7.70	
CC1CN(Cc2cc(C(F)(F)F)c3ncn(-c4cc([C@]5(c6nncn6C)C[C@@H](C)C5)cc(OCF)n4)c(=O)c3c2)CCC1(F)F (some centres unmarked) [Example 109]	> 7.70	
CC1CC(c2cccc(-n3[nH]c4c(C(F)(F)F)cc(CN5CCC[C@H](C)C5)cc4c3=O)c2)(c2nncn2C)C1 (some centres unmarked) [Example 73]	< 6.00	
C[C@H]1CCCN(Cc2cc(C(F)(F)F)c3cn(-c4cc([C@]5(c6nncn6C)C[C@H](C)C5)ccn4)nc3c2)C1 [Example 71]		6.30 to 7.30
C#C[C@H]1CCCN(Cc2cc(C(F)(F)F)c3ncn(-c4cc([C@]5(c6nncn6C)C[C@@H](C)C5)ccn4)c(=O)c3c2)C1 [Example 61]		7.30 to 7.70
C[C@H]1CCCN(Cc2ccc3ncn(-c4cc([C@]5(c6nncn6C)C[C@@H](C)C5)cc(OCF)n4)c(=O)c3c2)C1 [Example 112]	> 7.70	
C[C@H]1CCCN(Cc2cc(C(F)(F)F)c3cnn(-c4cc([C@]5(c6nncn6C)C[C@@H](C)C5)ccn4)c(=O)c3c2)C1 (single isomer, unassigned) [Example 55]		6.00 to 6.30

SMILES	pIC50 [1]	pIC50
C[C@H]1CCCN(Cc2cc(C(F)(F)F)c3ncn(-c4cc([C@]5(c6nncn6C6CCC6)C[C@@H](C)C5)ccn4)c(=O)c3c2)C1 [Example 110]		6.30 to 7.30
CC1CC(c2cc(F)nc(-n3cnc4c(C(F)(F)F)cc(CN5CCC[C@H](C)C5)cc4c3=O)c2)(c2nncn2C)C1 (some centres unmarked) [Example 44]		7.30 to 7.70
C[C@H]1CCCN(Cc2cc(C(F)(F)F)c3cnn(-c4cccc(C5(c6nncn6C)CC(F)(F)C5)c4)c(=O)c3c2)C1 [Example 83]		6.30 to 7.30
C[C@H]1CCCN(Cc2cc3c(=O)n(-c4cccc([C@]5(c6nncn6C)C[C@@H](C)C5)c4)cnc3c(C(F)(F)F)n2)C1 [Example 62]		7.30 to 7.70
C[C@H]1CCCN(Cc2cc(C(F)(F)F)c3cn(-c4cccc(C5(c6nncn6C)CC(OC(F)F)C5)c4)nc3c2)C1 (some centres unmarked) [Example 59]		6.30 to 7.30
CC1CC(c2cccc(-c3nc4cc(CN5CCO[C@H](C)C5)cc(C(F)(F)F)c4s3)c2)(c2nncn2C)C1 (some centres unmarked) [Example 11]		6.30 to 7.30
CC1CC(c2cccc(N3CCc4c(cc(CN5CC[C@H](F)C5)cc4C(F)(F)F)C3=O)c2)(c2nncn2C)C1 (stereo partly drawn) [Example 1, (S)-7-((3-fluoropyrrolidin-1-yl)methyl)-2-(3-(3-methyl-1-(4-methyl-4H-1,2,4-triazol-3-yl)cyclobutyl)phenyl)-5-(trifluoromethyl)-3,4-dihydroisoquinolin-1(2H)-one]		6.30 to 7.30
COCC1CC(c2cccc(-n3cnc4c(C(F)(F)F)cc(CN5CCC[C@H](C)C5)cc4c3=O)c2)(c2nncn2C)C1 (some centres unmarked) [Example 76]		6.30 to 7.30
CC1CC(c2cccc(-c3n[nH]c4c(CN5CCC[C@H](C)C5)cc(C(F)(F)F)nc34)c2)(c2nncn2C)C1 (stereo partly drawn) [Example 5, (S)-3-(3-(3-methyl-1-(4-methyl-4H-1,2,4-triazol-3-yl)cyclobutyl)phenyl)-7-((3-methylpiperidin-1-yl)methyl)-5-(trifluoromethyl)-1H-pyrazolo[4,3-b]pyridine]		6.30 to 7.30
CC1CC(c2cccc(-n3cc4c(C(F)(F)F)cc(CN5C[C@@H](C)C[C@H](C)C5)cc4n3)c2)(c2nncn2C)C1 (some centres unmarked) [Example 86]		6.30 to 7.30
CC1CC(c2cccc(-n3cnc4c(C(F)(F)F)cc(CN5CCC[C@H](C)C5)cc4c3=O)c2)(c2nncn2C)C1 (some centres unmarked) [Example 84]	> 7.70	
C#CC1CC(c2ccnc(-n3cnc4c(C(F)(F)F)cc(CN5CCC[C@H](C)C5)cc4c3=O)c2)(c2nncn2C)C1 (some centres unmarked) [Example 101]	> 7.70	
C[C@H]1CCCN(Cc2cc(C(F)(F)F)c3ncn(-c4cc([C@]5(c6nncn6C)C[C@@H](CF)C5)ccn4)c(=O)c3c2)C1 [Example 114]		7.30 to 7.70
CC1CC(c2cncc(-n3ncc4c(C(F)(F)F)cc(CN5CCC[C@H](C)C5)cc4c3=O)c2)(c2nncn2C)C1 (some centres unmarked) [Example 54]		6.30 to 7.30
C#C[C@H]1CCCN(Cc2cc(C(F)(F)F)c3cn(-c4cccc([C@]5(c6nncn6C)C[C@@H](C)C5)c4)nc3c2)C1 [Example 56]	> 7.70	
C[C@H]1CCCN(Cc2cc(C(F)(F)F)c3cn(-c4cccc(C5(C(F)c6nncn6C)COC5)c4)nc3c2)C1 (some centres unmarked) [Example 57]	> 7.70	
CC1CC(c2cc(OC(F)F)nc(-n3cnc4c(C(F)(F)F)cc(CN5CCC[C@H](C)C5)cc4c3=O)c2)(c2nncn2C)C1 (some centres unmarked) [Example 117]	> 7.70	
Cn1cnnc1[C@]1(c2cc(OCF)nc(-n3cnc4ccc(CN5CCC[C@H](F)C5)cc4c3=O)c2)C[C@H](C)C1 [Example 98]		6.30 to 7.30
CC1CC(c2cccc(-n3cc4c(C(F)(F)F)cc(CN5CCC[C@@](C)(O)C5)cc4n3)c2)(c2nncn2C)C1 (some centres unmarked) [Example 89]		6.30 to 7.30
Cn1cnnc1[C@]1(c2ccnc(-n3ncc4c(C(F)(F)F)cc(CN5CCC6(CC6)C5)cc4c3=O)c2)C[C@H](C)C1 [Example 36]		7.30 to 7.70

SMILES	pIC50 [1]	pIC50
CC1CC(c2ccnc(-n3cnc4c(C(F)(F)F)c(CN5CCC[C@H](C)C5)[nH]c4c3=O)c2)(c2nncn2C)C1 (some centres unmarked) [Example 46]		6.30 to 7.30
C[C@H]1CCCN(Cc2cc(C(=O)Nc3cccc([C@H](c4nncn4C)C4COC4)c3)cc(C(F)(F)F)c2)C1 [Example 27]		6.30 to 7.30
C[C@H]1CCCN(Cc2cc(C(F)(F)F)c3cnn(-c4cccc(C5(Cc6nncn6C)COC5)c4)c(=O)c3c2)C1 [Example 13]		6.00 to 6.30
CC1CC(c2cccc(NC(=O)c3cc(CN4CCC[C@H](C)C4)cc4c3OC(F)(F)O4)c2)(c2nncn2C)C1 (some centres unmarked) [Example 25]		7.30 to 7.70
C#Cc1cc([C@]2(c3nncn3C)C[C@@H](C)C2)cc(-n2cnc3ccc(CN4CCC[C@H](C)C4)cc3c2=O)n1 [Example 97]		6.30 to 7.30
C[C@H]1CCCN(Cc2cc(C(F)(F)F)c3cn(-c4cc([C@]5(c6nncn6C)C[C@@H](C)C5)ccn4)nc3c2)C1 (single isomer, unassigned) [Example 58]		7.30 to 7.70
C[C@H]1CCCN(Cc2ccc3ncn(-c4cc([C@]5(c6nncn6C(F)F)C[C@@H](C)C5)cc(OCF)n4)c(=O)c3c2)C1 [Example 124]	> 7.70	
C[C@H]1CCCN(Cc2cc(F)c3ncn(-c4cc([C@]5(c6nncn6C)C[C@@H](C)C5)cc(OCF)n4)c(=O)c3c2)C1 [Example 111]	> 7.70	
CCc1cc([C@]2(c3nncn3C)C[C@@H](C)C2)cc(-n2cnc3ccc(CN4CCC[C@H](C)C4)cc3c2=O)n1 [Example 93]		7.30 to 7.70
C[C@H]1CCCN(Cc2cc(C(F)(F)F)c3ncn(-c4cc(C5(c6nncn6C)CC6(CC6)C5)ccn4)c(=O)c3c2)C1 [Example 118]		7.30 to 7.70
C[C@H]1CCCN(Cc2cc3c(=O)n(-c4cc([C@]5(c6nncn6C)C[C@@H](C)C5)cc(OCF)n4)cnc3cc2F)C1 [Example 100]	> 7.70	
C[C@H]1CCCN(Cc2cc(C(F)(F)F)c3cnn(-c4cccc([C@H](c5nncn5C)C5CCC5)c4)c(=O)c3c2)C1 [Example 19]		6.30 to 7.30
C#C[C@H]1CCCN(Cc2cc(C(F)(F)F)c3cn(-c4cccc(C5(Cc6nncn6C)COC5)c4)nc3c2)C1 [Example 69]	> 7.70	
C[C@H]1CCCN(Cc2cc(C(=O)Nc3cccc([C@@H](c4nncn4C)C4COC4)c3)cc(C(F)(F)F)c2)C1 [Example 26]	< 6.00	
CC1CC(c2cc(C#N)cc(-n3cc4c(C(F)(F)F)cc(CN5CCC[C@H](C)C5)cc4n3)c2)(c2nncn2C)C1 (some centres unmarked) [Example 53]		6.30 to 7.30
Cn1cnnc1[C@]1(c2cc(OCF)nc(-n3cnc4c(C(F)(F)F)cc(CN5CCCC(C)(F)C5)cc4c3=O)c2)C[C@H](C)C1 (some centres unmarked) [Example 108]	> 7.70	
C[C@H]1CCCN(Cc2ccc3ncn(-c4cc([C@]5(c6nncn6C)C[C@@H](C)C5)cc(C5CC5)n4)c(=O)c3c2)C1 [Example 96]	> 7.70	
CC1CC(c2cccc(-n3ncc4c(C(F)(F)F)cc(CN5CCC[C@H](C)C5)cc4c3=O)c2)(c2nncn2C)C1 (some centres unmarked) [Example 6]		7.30 to 7.70
CC1CC(c2cc(C(N)=O)cc(-n3cc4c(C(F)(F)F)cc(CN5CCC[C@H](C)C5)cc4n3)c2)(c2nncn2C)C1 (some centres unmarked) [Example 52]	> 7.70	
